Values joined by “and” are separate entries in the source; they are usually repeats but may differ in a detail not shown here. Identical values can stand only once. Like-named read-outs stand apart in the source and are kept apart here.
Key:
[1] = test system: T98G; experiment: cells; format: cell-based, human; conditions: for IC50: Homo sapiens, T98G, read-out: IC50 T98G; for SI T98G: selectivity index = IC50 normal cells (Chang liver) / IC50 cancer cells, n.s. = no selectivity
[2] = test system: M-HeLa cells; experiment: Cell apoptosis analysis by flow cytometry (annexin V-Alexa Fluor 647 / propidium iodide); format: cell-based, human; conditions: 24 h
Experimental: (§1) Cell Culture. M-HeLa cells at 10^6 cells/ well in a final volume of 2 mL were seeded into 6-well plates. After 24 h of incubation, various concentrations of compounds 3c and 3f were added to wells.
Cell Apoptosis Analysis. The cells were harvested at 2000 rpm for 5 min and, then, washed twice with ice-cold PBS, followed by resuspension in binding buffer 100 μL. Next, the samples were incubated with 0.35 μL of annexin V-Alexa Fluor 647 and 0.1 μL of propidium iodide for 40 min at room temperature in the dark. Finally, the cells were analyzed by flow cytometry (Guava easyCyte, MERCK, Kenilworth, NJ, USA). The experiments were repeated three times.

[3] = test system: Chang Liver; experiment: Cytotoxicity assay (Cytell Cell Viability BioApp), normal Chang liver cells; format: cell-based; conditions: Homo sapiens, mean ± SD, three experiments, read-out: IC50 Chang Liver (normal cell line)
[4] = test system: M-HeLa; experiment: Cytotoxicity assay (Cytell Cell Viability BioApp), M-HeLa; format: cell-based, human; conditions: for IC50: Homo sapiens, M-HeLa, mean ± SD, three experiments; for SI M-HeLa: selectivity index = IC50 normal cells (Chang liver) / IC50 cancer cells, n.s. = no selectivity
[5] = test system: M-HeLa cells; experiment: Cell cycle analysis, propidium iodide, flow cytometry; format: cell-based, human; conditions: 15 μM, 24 h; control cells 34.28%
Experimental: as §1
The DNA content and cell-cycle distribution after […] were estimated by flow cytometry. Cell seeding, drug treatment and ethanol fixation were similar to cell proliferation assay. After washing with PBS, […] were suspended in 150 μL of PBS, then 0.5 mL phosphate-citrate buffer (0.05 M, pH = 4.0) was added and the suspension was incubated at room temperature for 5 min to facilitate the extraction of low molecular weight DNA. Following centrifugation the cells were resuspended in 150 μL DNA staining solution (20 μg/mL propidium iodide, 200 μg/mL […], and 0.1% Triton X-100) and incubated in the CO2 incubator (37 °C for 30 min). Cell cycle distribution was determined by fluorescence-activated cell sorting analysis of propidium iodide-stained ethanol-fixed cells using a Guava EasyCyte (Guava easyCyte, MERCK, Kenilworth, NJ, USA).

[6] = test system: MCF7; experiment: Cytotoxicity assay (Cytell Cell Viability BioApp), MCF7; format: cell-based, human; conditions: for IC50: Homo sapiens, MCF7, mean ± SD, three experiments; for SI MCF7: selectivity index = IC50 normal cells (Chang liver) / IC50 cancer cells, n.s. = no selectivity
[7] = test system: PANC-1; experiment: Cytotoxicity assay (Cytell Cell Viability BioApp), PANC-1; format: cell-based, human; conditions: for IC50: Homo sapiens, PANC-1, mean ± SD, three experiments; for SI PANC-1: selectivity index = IC50 normal cells (Chang liver) / IC50 cancer cells, n.s. = no selectivity
[8] = test system: Vibrio aquamarinus DSM 26054; set-up: method as in PMID 31450696; conditions: control = 100%, data first published in ref 40, cited from earlier work
[9] = test system: M-HeLa cells; experiment: Mitochondrial membrane potential, JC-10, flow cytometry; format: cell-based, human; conditions: ≥ IC 50 concentrations
Experimental: as §1
The cells were harvested at 2000 rpm for 5 min and, then, washed twice with ice-cold PBS, followed by resuspension in JC-10 (10 µg/mL) and incubation at 37 °C for 10 min. After the cells were rinsed three times and suspended in PBS, the JC-10 fluorescence was observed by flow cytometry.

| SMILES | IC50 [1] [µM] | SI T98G [1] | IC50 [3] [µM] | IC50 [4] [µM] | SI M-HeLa [4] | IC50 [6] [µM] | SI MCF7 [6] | IC50 [7] [µM] | SI PANC-1 [7] | intensity of red fluorescence (JC-10) compared to the control [9] | other results |
| --- | --- | --- | --- | --- | --- | --- | --- | --- | --- | --- | --- |
| O=[N+]([O-])c1c(Cl)cc2c(no[n+]2[O-])c1Nc1cccc(O)c1 [Compound 3f, 6-chloro-4-((3-hydroxyphenyl)amino)-5-nitrobenzofuroxan] | 59.8 ± 4.8 | 1.1 | 64.4 ± 5.7 | 16 ± 1.3 | 4.0 | 8.1 ± 0.7 | 8.0 | > 100 | n.s. | – | D—dead cells ([2]; 10 μM): 5.03%; Ea—early apoptotic cells ([2]; 10 μM): 14.46%; La—late apoptotic cells ([2]; 10 μM): 12.79%; L—living cells ([2]; 10 μM): 67.72%; D—dead cells ([2]; 15 μM): 8.16%; Ea—early apoptotic cells ([2]; 15 μM): 17.59%; La—late apoptotic cells ([2]; 15 μM): 16.83%; L—living cells ([2]; 15 μM): 57.42%; cells in G0/G1 phase (G1) [5]: 66.8%; Biofilm Formation, % ([8]; compound concentration 1 × 10^−4 M): 98.97%; Biofilm Formation, % ([8]; compound concentration 1 × 10^−5 M): 96.57%; Biofilm Formation, % ([8]; compound concentration 1 × 10^−6 M): 43.56% and 43.56 * %; Biofilm Formation, % ([8]; compound concentration 1 × 10^−7 M): 11.34% and 11.34 * %; Biofilm Formation, % ([8]; compound concentration 1 × 10^−8 M): 9.31% and 9.31 * %; Biofilm Formation, % ([8]; compound concentration 1 × 10^−9 M): 66.58% |
| O=[N+]([O-])c1c(Cl)cc2c(no[n+]2[O-])c1NCCCN1CCOCC1 [Compound 5c, 6-chloro-4-((3-morpholinopropyl)amino)-5-nitrobenzofuroxan] | > 100 | n.s. | > 100 | 49.3 ± 3.9 | >2 | > 100 | n.s. | 38 ± 2.9 | >2.6 | did not change significantly | – |
| O=[N+]([O-])c1c(Cl)cc2c(no[n+]2[O-])c1N1CCCC1 [Compound 5g, 6-chloro-5-nitro-4-(pyrrolidin-1-yl)benzofuroxan] | > 100 | n.s. | > 100 | > 100 | n.s. | > 100 | n.s. | > 100 | n.s. | did not change significantly | – |
| CC(C)c1ccc(Nc2c([N+](=O)[O-])cc([N+](=O)[O-])c3no[n+]([O-])c23)cc1 [Compound 6, 7-(4-isopropylphenylamino)-4,6-dinitrobenzofuroxan] | – | – | – | – | – | – | – | – | – | – | melting point: 110 to 111 °C |

Source: paper PMC7663979, “Design of Novel 4-Aminobenzofuroxans and Evaluation of Their Antimicrobial and Anticancer Activity” (International Journal of Molecular Sciences, 2020)
